This is an account of results in patent publication US20170008928A1, “NOVEL PEPTIDES AND PEPTIDE DERIVATIVES AND USES THEREOF” (Novo Nordisk A/S, priority 2015, published 2017).

Each structure is given as a SMILES string. Like-named read-outs stand apart in the source and are kept apart here. Starred links: 1 amine or outer side, 2 acyl side, 3 side chain; linkers in the order of their positions; H or OH if unused. Non-standard residues stand in square brackets, D forms with d. Residues, ends and D or L forms follow the SMILES beside them. *: point of attachment. Phe(4-CH2SO3H) = N[C@@H](Cc1ccc(CS(=O)(=O)O)cc1)C(=O)O; C20 diacid = O=C(O)CCCCCCCCCCCCCCCCCCC(=O)*; sY = N[C@@H](Cc1ccc(OS(=O)(=O)O)cc1)C(=O)O; C18 diacid = O=C(O)CCCCCCCCCCCCCCCCC(=O)*; γGlu = O=C(O)[C@H](CCC(=O)[*:2])N[*:1]; 1Nal = N[C@@H](Cc1cccc2ccccc12)C(=O)O; C14 diacid = O=C(O)CCCCCCCCCCCCC(=O)*; NMeF = CN[C@@H](Cc1ccccc1)C(=O)O; dNMeD = CN[C@H](CC(=O)O)C(=O)O; Nle = CCCC[C@H](N)C(=O)O; AEEA = NCCOCCOCC(=O)O

Data set [1] in a line: Pharmacokinetic (PK) studies in mini-pig, i.v. Format: in vivo. To be noted: i.v. 5 nmol/kg, female Göttingen mini-pigs, harmonic mean. On the procedure:
The purpose of this study is to determine the protraction in vivo of a number of CCK derivatives of the invention after intravenous (i.v.) administration to mini-pigs, i.e. the prolongation of their time in the body and thereby their time of action. This was done in pharmacokinetic (PK) studies, where the terminal half-life of the derivative in question was determined. By terminal half-life is generally meant the period of time it takes to halve a certain plasma concentration, measured after the initial distribution phase.
The derivatives of the compounds listed in Table 4 were subjected to PK studies as described in the following.
Female Göttingen mini-pigs obtained from Ellegaard Göttingen Minipigs (Dalmose, Denmark) at approximately 6 months of age and weighing approximately 17 kg were used in the studies. […] Additional blood samples were collected for the derivatives of Examples 2, 4, 7, 8, and 9 at the following time points: 5, 12, 22, 28 and 144 hours. The blood samples were collected into test tubes containing EDTA buffer for stabilisation and kept on ice for max. 20 minutes before centrifugation. The centrifugation procedure to separate plasma was: 4° C., approx. 2500 g for 10 minutes. Plasma was collected and immediately transferred to Micronic tubes stored at −20° C. until assayed.
Plasma was pipetted into Micronic tubes on dry ice, and kept at −20° C. until analysed for plasma concentration of the respective CCK derivative using LC-MS. The plasma samples (including standard curve samples used for quantitation of unknowns and prepared from blank plasma spiked with CCK compound at a concentration range of 0.5-2000 nM for the compounds of Examples 3, 5, 6 or 0.5-1000 nM for the remaining Example compounds) were protein precipitated using three volumes of methanol and centrifuged (16000×g, 4° C., 20 min). The supernatants were injected into the chromatographic system (TurboFlow Transcend 1250 & 10 valve VIM, Thermo Fisher Scientific) which consisted of an initial Turboflow Cyclone purification column 0.5×50 mm (Thermo Fischer Scientific) and an eluting Aeris peptide 3.6 μm XB—C18 column 2.1×50 mm (Phenomenex) kept at 60° C.
The CCK derivatives of Examples 2-9 were eluted using LC-MS method I: A chromatographic gradient system with mobile phases consisting of water with 0.1 v/v % formic acid (mobile phase A) and water/acetonitrile 10/90 v/v with 0.1 v/v % formic acid (mobile phase B). The 2 minute gradient started at 60% mobile phase B and ended at 100% mobile phase B with a flow of 0.4 mL/min. The CCK derivatives were detected and quantified after on-line infusion of the LC flow to the LTQ OrbiTrap Discovery mass spectrometer (Thermo Fischer Scientific) equipped with an electrospray interface operated in negative mode, ESI− (Sheath gas flow rate at 40, Aux gas flow rate at 30, Sweep gas flow rate at 2, Spray voltage at 2.8 kV, Capillary temp. at 275° C., S-lens RF level at −125 and Heater temp. at 325° C.).
The remaining Example compounds were eluted using LC-MS method II: A chromatographic gradient system with mobile phases consisting of water with 1 v/v % formic acid (mobile phase A) and water/acetonitrile 10/90 v/v with 1 v/v % formic acid (mobile phase B). The initial 0.25 minute gradient started at 0% mobile phase B and ended at 70% mobile phase B followed by the second 2.2 minute gradient started at 70% mobile phase B and ended at 75% mobile phase B with a flow of 0.4 mL/min. These CCK derivatives were detected and quantified as described above except that the Spray voltage was 4.0 kV.
Individual plasma concentration-time profiles were analysed by a non-compartmental model in Phoenix v. 6.3 (Pharsight Inc., Mountain View, Calif., USA).

Data set [2] is described as follows: Chemical stability compared to CCK-8s, 8 mM phosphate pH 7.4, RP-UHPLC. Type of data set: physicochemical. To be noted: after two weeks at 37° C. On the procedure: The resulting samples were stored in HPLC vials at 5° C. and 37° C. for 2 weeks. The samples were analysed in the beginning of the experiment (t=0), after one week and after two weeks by RP-UHPLC with a mobile phase containing phosphate and with a gradient of acetonitrile. UV detection at 215 nm was used. Samples after one week and two weeks were analysed twice. The calculations were done as described above, and the results are summarised in Table 7 (average of two determinations).

Data set [3] can be described thus: Plasma exposure after the last dose in DIO mini-pigs. To be noted: for AUC(0-t): Göttingen, minipig, plasma, sc, read-out: AUCexposure (0-24 h) after last dose. Format: in vivo, Göttingen mini-pigs. How it is done: The CCK derivative was dissolved in the following buffer: 8 mM phosphate, 184 mM propylene glycol, 58 mM phenol, pH 7.4 concentrations ranging from 2000-10000 nmol/mL corresponding to dose volumes ranging from 0.00075-0.001 mL/kg. Liraglutide was dissolved in 8 mM phosphate, 184 mM propylenglycol, 58 mM phenol, pH 8.15 (1600 nmol/mL), dose volume was 0.001 mL/kg and this formulation also served as a vehicle for all 3 treatment groups. Animals were dosed subcutaneously once daily with vehicle, CCK derivative, liraglutide, or liraglutide in combination with the CCK derivative (given as two separate injections in each side of the neck). After the last dose blood samples were obtained in EDTA coated tubes at selected time points for up to 480 hours after dosing. Blood was sampled through central-venous catheters implanted under general anaesthesia after 11 weeks of treatment.
The resulting plasma was pipetted into Micronic tubes on dry ice, and kept at −20° C. until analysed for plasma exposure of liraglutide and the CCK derivative. Plasma content of the CCK derivative was measured using LC-MS method II, as described in Example 93. Plasma content of liraglutide was measured using LOCI (Luminescence Oxygen Channeling Immunoasssay). LOCI is generally described for the determination of insulin by Poulsen and Jensen in Journal of Biomolecular Screening 2007, vol. 12, p. 240-247. The donor beads were coated with streptavidin, while acceptor beads were conjugated with a monoclonal antibody recognising a C-terminal epitope of the peptide. Another monoclonal antibody, specific for the N-terminus, was biotinylated. The three reactants were combined with the analyte and formed a two-sited immuno-complex. Illumination of the complex released singlet oxygen atoms from the donor beads, which were channelled into the acceptor beads and triggered chemiluminescence which was measured in an Envision plate reader. The amount of light was proportional to the concentration of the compound.

For `CCCC[C@H](NC(=O)[C@H](Cc1ccc(OS(=O)(=O)O)cc1)NC(=O)[C@H](CC(=O)O)NC(=O)COCCOCCNC(=O)COCCOCCNC(=O)CC[C@H](NC(=O)CCCCCCCCCCCCCCCCC(=O)O)C(=O)O)C(=O)NCC(=O)N[C@@H](Cc1c[nH]c2ccccc12)C(=O)N[C@@H](CCCC)C(=O)N(C)[C@H](CC(=O)O)C(=O)N[C@@H](Cc1cccc2ccccc12)C(N)=O` [Example 2, 2-[2-[2-[[2-[2-[2-[[(4S)-4-Carboxy-4-(17-carboxyheptadecanoylamino)butanoyl]amino]ethoxy]ethoxy]acetyl]amino]ethoxy]ethoxy]acetyl-Asp-sTyr-Nle-Gly-Trp-Nle-DMeAsp-1Nal-amide] ({C18 diacid-γGlu-AEEA-AEEA}-D[sY][Nle]GW[Nle][dNMeD][1Nal]-NH2), the “Plasma terminal half-life (T½)” value in data set [1] is 140 h. Turning to `CCCC[C@H](NC(=O)[C@H](Cc1ccc(CS(=O)(=O)O)cc1)NC(=O)[C@H](CC(=O)O)NC(=O)COCCOCCNC(=O)COCCOCCNC(=O)CC[C@H](NC(=O)CCCCCCCCCCCCCCCCC(=O)O)C(=O)O)C(=O)NCC(=O)N[C@@H](Cc1c[nH]c2ccccc12)C(=O)N[C@@H](CCCC)C(=O)N(C)[C@H](CC(=O)O)C(=O)N(C)[C@@H](Cc1ccccc1)C(N)=O` [Example 3, 2-[2-[2-[[2-[2-[2-[[(4S)-4-Carboxy-4-(17-carboxyheptadecanoylamino)butanoyl]amino]ethoxy]ethoxy]acetyl]amino]ethoxy]ethoxy]acetyl-Asp-Phe(4-sulfomethyl)-Nle-Gly-Trp-Nle-DMeAsp-MePhe-amide] ({C18 diacid-γGlu-AEEA-AEEA}-D[Phe(4-CH2SO3H)][Nle]GW[Nle][dNMeD][NMeF]-NH2), the “stability higher than the stability of CCK-8s” value in data set [2] is given as “about 50%”. The AUC(0-t) worked out at 27.1 µM·h in data set [3] (CCK derivative high dose group (10 nmol/kg)) and 4.2 µM·h in data set [3] (CCK derivative low dose group). For the same molecule, the “AUCexposure (0-24 h) after last dose, CCK derivative” value in data set [3] (combination group, CCK derivative […] on top of liraglutide) is “derivative: 3332000 pM*h”.

In the case of `CCCC[C@H](NC(=O)[C@H](Cc1c[nH]c2ccccc12)NC(=O)CNC(=O)[C@H](CC(C)C)NC(=O)[C@H](Cc1ccc(OS(=O)(=O)O)cc1)NC(=O)[C@H](CC(=O)O)NC(=O)[C@H](CO)NC(=O)[C@H](CO)NC(=O)CNC(=O)[C@H](CO)NC(=O)[C@H](CO)NC(=O)CNC(=O)CCCCCCCCCCCCCCCCC(=O)O)C(=O)N(C)[C@H](CC(=O)O)C(=O)N(C)[C@@H](Cc1ccccc1)C(N)=O` [Example 29, 17-Carboxyheptadecanoyl-Gly-Ser-Ser-Gly-Ser-Ser-Asp-sTyr-Leu-Gly-Trp-Nle-DMeAsp-MePhe-amide] ({C18 diacid}-GSSGSSD[sY]LGW[Nle][dNMeD][NMeF]-NH2), the half-life in data set [1] (minipig, plasma, iv, read-out: Plasma terminal half-life (T½) (converted)) was 119 h. Turning to `CCCC[C@H](NC(=O)[C@H](Cc1c[nH]c2ccccc12)NC(=O)CNC(=O)[C@H](CC(C)C)NC(=O)[C@H](Cc1ccc(CS(=O)(=O)O)cc1)NC(=O)[C@H](CC(=O)O)NC(=O)COCCOCCNC(=O)COCCOCCNC(=O)CC[C@H](NC(=O)CCCCCCCCCCCCC(=O)O)C(=O)O)C(=O)N(C)[C@H](CC(=O)O)C(=O)N(C)[C@@H](Cc1ccccc1)C(N)=O` [Example 34, 2-[2-[2-[[2-[2-[2-[[(4S)-4-Carboxy-4-(13-carboxytridecanoylamino)butanoyl]amino]ethoxy]ethoxy]acetyl]amino]ethoxy]ethoxy]acetyl-Asp-Phe(4-sulfomethyl)-Leu-Gly-Trp-Nle-DMeAsp-MePhe-amide] ({C14 diacid-γGlu-AEEA-AEEA}-D[Phe(4-CH2SO3H)]LGW[Nle][dNMeD][NMeF]-NH2), the “Plasma terminal half-life (T½)” value in data set [1] is reported as 2 h.

With `CCCC[C@H](NC(=O)[C@H](Cc1c[nH]c2ccccc12)NC(=O)CNC(=O)[C@H](CC(C)C)NC(=O)[C@H](Cc1ccc(CS(=O)(=O)O)cc1)NC(=O)[C@H](CC(=O)O)NC(=O)COCCOCCNC(=O)COCCOCCNC(=O)CC[C@H](NC(=O)CCCCCCCCCCCCCCCCCCC(=O)O)C(=O)O)C(=O)N(C)[C@H](CC(=O)O)C(=O)N(C)[C@@H](Cc1ccccc1)C(N)=O` [Example 35, 2-[2-[2-[[2-[2-[2-[[(4S)-4-Carboxy-4-(19-carboxynonadecanoylamino)butanoyl]amino]ethoxy]ethoxy]acetyl]amino]ethoxy]ethoxy]acetyl-Asp-Phe(4-sulfomethyl)-Leu-Gly-Trp-Nle-DMeAsp-MePhe-amide] ({C20 diacid-γGlu-AEEA-AEEA}-D[Phe(4-CH2SO3H)]LGW[Nle][dNMeD][NMeF]-NH2), in data set [1], the “Plasma terminal half-life (T½)” value was 153 h.

The term half-life denotes how long it takes for the measured level to halve.
